Results on one molecule are retold here after patent publication US20220040166A1, “Methods and Compositions of Treating an Ophthalmic Condition” (KARTOS THERAPEUTICS, priority 2018, published 2022).

In series [1] the test system is MDM2-amplified tumor cell line SJSA. Kind of series: Induction of p21 mRNA by Comp-A in SJSA cells. In kind it is cell-based.
Series [2] can be described thus: Tolerability of intravitreally administered solution of the compound of Formula (I). As to the method: Based on expected solubility, a maximum feasible intravitreal dose of 44 μg of the compound of Formula (I) in 50 uL pH 7.85 aqueous buffer (sterile saline for injection, phosphate buffered saline or HEPES buffered saline) was administered to Dutch Belted rabbits.
Ophthalmoscopic examinations (slit lamp), ocular scoring, and intraocular pressure were observed through 5 days post-administration.

Series [3] is described as follows: In vitro release of Comp-A from nanoparticles by dialysis against HBS (pH 7) at 37° C. The class given is physicochemical. The following applies: dialyzed against >1000X volume HBS (pH 7) at 37° C. The method, then:
• 5. Immediately following formulation, NPs were diluted to 4× volume in HBS. • 6. Pall 30 kDa MWCO centrifugal filters were used for solvent exchange to HBS and to concentrate formulations (2000×g, 21° C.). • 7. Particle size and polydispersity index (PDI) were analyzed using a Malvern Zetasizer (dynamic light scattering; DLS). […] Final formulations were sterile filtered through 0.22 μm syringe filters and stored at −80° C. in MrFrosty freezing containers. The following day formulations were moved to cryogenic freezer boxes for storage prior to shipping. • 9. A sample of each formulation was thawed to room temperature and dialyzed against >1000 volumes of 1×HBS (pH 7) at 37° C. for 6 hours. Samples were collected at 2 mins, 30 mins, 2 hours and 6 hours and analyzed for drug content by UPLC to determine particle release characteristics.

Where [4] appears, read: 44 μg in 50 uL pH 7.85 aqueous buffer, intravitreal, rabbit.

≈ marks a conversion by molar mass, not a printed value. Marks after values point to notes of the source that are not given here. Bounds are passed on as bounds.

Consider `CC(C)[C@@H](CS(=O)(=O)C(C)C)N1C(=O)[C@@](C)(CC(=O)O)C[C@H](c2cccc(Cl)c2)[C@H]1c1ccc(Cl)cc1` [Comp-A, 2-((3R,5R,6S)-5-(3-chlorophenyl)-6-(4-chlorophenyl)-1-((S)-1-(isopropylsulfonyl)-3-methylbutan-2-yl)-3-methyl-2-oxopiperidin-3-yl) Acetic Acid], for which the EC50 (as a rule, the midpoint of the concentration-response curve) in series [1] was 0.0262 µg/mL (≈ 0.0461 µM). In addition, in series [2] (setting [4]), the “Changes in intra-ocular pressure” value is listed as “no changes” and the “Ophthalmologic observations through 5 days” value is reported as “no ophthalmologic observations”. Also, the Tolerability result in series [2] (22 microgram/eye in PBS (1×) and in HEPES buffered saline) is “no findings”. The Tolerability entry in series [2] (44 microgram/eye in PBS (1×) and in HEPES buffered saline) is listed as “no findings”. The “% Release after 2 h dialysis” value in series [3] (2 h) was less than 1%. Besides, the “% Release after 6 h dialysis” value in series [3] (6 h) is 0* %.
